Key:
[1] = test system: Alternaria brassicae; assay: Antifungal activity against Alternaria brassicae QDAU-16 assessed as reduction in microbial growth by broth microdilution method; type: functional
[2] = test system: Ceratobasidium cornigerum; assay: Antifungal activity against Ceratobasidium cornigerum QDAU-6 assessed as reduction in microbial growth by broth microdilution method; type: functional
[3] = test system: Coniella diplodiella; assay: Antifungal activity against Coniothyrium diplodiella QDAU-7 assessed as reduction in microbial growth by broth microdilution method; type: functional
[4] = test system: Colletotrichum gloeosporioides; assay: Antifungal activity against Colletotrichum gloeosporioides QDAU-2 assessed as reduction in microbial growth by broth microdilution method; type: functional
[5] = test system: Colletotrichum gloeosporioides; assay: Antifungal activity against Colletotrichum gloeosporioides QDAU-17 assessed as reduction in microbial growth by broth microdilution method; type: functional
[6] = test system: Curvularia spicifera; assay: Antifungal activity against Curvularia spicifera QDAU-18 assessed as reduction in microbial growth by broth microdilution method; type: functional
[7] = test system: Fusarium graminearum; assay: Antifungal activity against Fusarium graminearum QDAU-4 assessed as reduction in microbial growth by broth microdilution method; type: functional
[8] = test system: Fusarium oxysporum; assay: Antifungal activity against Fusarium oxysporum QDAU-8 assessed as reduction in microbial growth by broth microdilution method; type: functional
[9] = test system: Fusarium proliferatum; assay: Antifungal activity against Fusarium proliferatum QDAU-19 assessed as reduction in microbial growth by broth microdilution method; type: functional
[10] = test system: Penicillium digitatum; assay: Antifungal activity against Penicillium digitatum QDAU-14 assessed as reduction in microbial growth by broth microdilution method; type: functional
[11] = test system: Botryosphaeria berengeriana; assay: Antifungal activity against Physalospora piricola QDAU-15 assessed as reduction in microbial growth by broth microdilution method; type: functional
[12] = test system: Escherichia coli; assay: Antibacterial activity against Escherichia coli EMBLC-1 assessed as reduction in microbial growth by broth microdilution method; type: functional
[13] = test system: Edwardsiella tarda; assay: Antibacterial activity against Edwardsiella tarda QDIO-2 assessed as reduction in microbial growth by broth microdilution method; type: functional
[14] = test system: Micrococcus luteus; assay: Antibacterial activity against Micrococcus luteus QDIO-3 assessed as reduction in microbial growth by broth microdilution method; type: functional
[15] = test system: Pseudomonas aeruginosa; assay: Antibacterial activity against Pseudomonas aeruginosa QDIO-4 assessed as reduction in microbial growth by broth microdilution method; type: functional
[16] = test system: Vibrio anguillarum; assay: Antibacterial activity against Vibrio anguillarum QDIO-6 assessed as reduction in microbial growth by broth microdilution method; type: functional
[17] = test system: Vibrio harveyi; assay: Antibacterial activity against Vibrio harveyi QDIO-7 assessed as reduction in microbial growth by broth microdilution method; type: functional
[18] = test system: Vibrio vulnificus; assay: Antibacterial activity against Vibrio vulnificus QDIO-10 assessed as reduction in microbial growth by broth microdilution method; type: functional
[19] = test system: MKN-45; assay: Cytotoxicity against human MKN-45 cells assessed as reduction in cell viability at 20 uM; type: functional, cell-based
[20] = test system: A549; assay: Cytotoxicity against human A549 cells assessed as reduction in cell viability at 20 uM; type: functional, cell-based
[21] = test system: HCT-116; assay: Cytotoxicity against human HCT-116 cells assessed as reduction in cell viability at 20 uM; type: functional, cell-based
[22] = test system: HeLa; assay: Cytotoxicity against human HeLa cells assessed as reduction in cell viability at 20 uM; type: functional, cell-based
[23] = test system: K562; assay: Cytotoxicity against human K562 cells assessed as reduction in cell viability at 20 uM; type: functional, cell-based
[24] = test system: 786-0; assay: Cytotoxicity against human 786-0 cells assessed as reduction in cell viability at 20 uM; type: functional, cell-based
[25] = test system: TE-1; assay: Cytotoxicity against human TE-1 cells assessed as reduction in cell viability at 20 uM; type: functional, cell-based
[26] = test system: 5637; assay: Cytotoxicity against human 5637 cells assessed as reduction in cell viability at 20 uM; type: functional, cell-based
[27] = test system: GBC-SD; assay: Cytotoxicity against human GBC-SD cells assessed as reduction in cell viability at 20 uM; type: functional, cell-based
[28] = test system: L02; assay: Cytotoxicity against human L02 cells assessed as reduction in cell viability at 20 uM; type: functional, cell-based
[29] = test system: MCF7; assay: Cytotoxicity against human MCF7 cells assessed as reduction in cell viability at 20 uM; type: functional, cell-based
[30] = test system: HepG2; assay: Cytotoxicity against human HepG2 cells assessed as reduction in cell viability at 20 uM; type: functional, cell-based
[31] = test system: SF-126; assay: Cytotoxicity against human SF-126 cells assessed as reduction in cell viability at 20 uM; type: functional, cell-based
[32] = test system: DU-145; assay: Cytotoxicity against human DU-145 cells assessed as reduction in cell viability at 20 uM; type: functional, cell-based
[33] = test system: CAL-62; assay: Cytotoxicity against human CAL-62 cells assessed as reduction in cell viability at 20 uM; type: functional, cell-based
[34] = test system: PaTu 8988t; assay: Cytotoxicity against human PaTu 8988t cells assessed as reduction in cell viability at 20 uM; type: functional, cell-based
[35] = test system: HOS; assay: Cytotoxicity against human HOS cells assessed as reduction in cell viability at 20 uM; type: functional, cell-based
[36] = test system: A-375; assay: Cytotoxicity against human A-375 cells assessed as reduction in cell viability at 20 uM; type: functional, cell-based
[37] = test system: A673; assay: Cytotoxicity against human A673 cells assessed as reduction in cell viability at 20 uM; type: functional, cell-based
[38] = test system: HEK-293T; assay: Cytotoxicity against human HEK293T cells assessed as reduction in cell viability at 20 uM; type: toxicity, cell-based
[39] = test system: Fusarium proliferatum; assay: Antifungal activity against Fusarium proliferatum assessed as reduction in microbial growth measured after 72 hrs; type: functional, organism-based

Structure (SMILES): C=C1CC[C@@]2(O)C[C@@H]1[C@]2(C)[C@H](OC(C)=O)C(=O)C=C(C)C
- MIC [1]: 4 µg/mL
- MIC [2]: 8 µg/mL
- MIC [3]: 4 µg/mL
- MIC [4]: 4 µg/mL
- MIC [5]: 16 µg/mL
- MIC [6]: 1 µg/mL
- MIC [7]: 2 µg/mL
- MIC [8]: 16 µg/mL
- MIC [9]: 2 µg/mL
- MIC [10]: 8 µg/mL
- MIC [11]: 32 µg/mL

Structure (SMILES): C=C1CC[C@H](O)C[C@@H]1[C@H](C)[C@H](O)C(=O)C=C(C)C
- MIC [12]: > 64 µg/mL
- MIC [13]: > 64 µg/mL
- MIC [14]: > 64 µg/mL
- MIC [15]: > 64 µg/mL
- MIC [16]: 64 µg/mL
- MIC [17]: > 64 µg/mL
- MIC [18]: 2 µg/mL

Structure (SMILES): C=C1CC[C@@]2(C[C@@H](O)C(=O)OC)C[C@@H]1[C@](C)([C@H](O)CC=C(C)C)O2
- MIC [1]: 8 µg/mL
- MIC [2]: 64 µg/mL
- MIC [3]: 4 µg/mL
- MIC [4]: 4 µg/mL
- MIC [5]: 64 µg/mL
- MIC [6]: 4 µg/mL
- MIC [7]: 4 µg/mL
- MIC [8]: 16 µg/mL
- MIC [9]: 4 µg/mL
- MIC [10]: 8 µg/mL
- MIC [11]: 64 µg/mL
- MIC [12]: > 64 µg/mL
- MIC [13]: > 64 µg/mL
- MIC [14]: > 64 µg/mL
- MIC [15]: > 64 µg/mL
- MIC [16]: 16 µg/mL
- MIC [17]: > 64 µg/mL
- MIC [18]: 64 µg/mL

Structure (SMILES): O=C(N[C@H](CO)[C@H](O)c1ccc([N+](=O)[O-])cc1)C(Cl)Cl [CHLORAMPHENICOL]
- MIC [12]: 0.5 µg/mL
- MIC [13]: 2 µg/mL
- MIC [14]: 0.5 µg/mL
- MIC [15]: 2 µg/mL
- MIC [16]: 0.5 µg/mL
- MIC [17]: 0.5 µg/mL
- MIC [18]: 2 µg/mL

Structure (SMILES): C=C1CC[C@H](O)C[C@@H]1[C@H](C)C(=O)[C@H](O)C=C(C)C
- MIC [12]: 8 µg/mL
- MIC [13]: > 64 µg/mL
- MIC [14]: > 64 µg/mL
- MIC [15]: > 64 µg/mL
- MIC [16]: 32 µg/mL
- MIC [17]: > 64 µg/mL
- MIC [18]: > 64 µg/mL
- Activity [19]: Not toxic
- Activity [20]: Not toxic
- Activity [21]: Not toxic
- Activity [22]: Not toxic
- Activity [23]: Not toxic
- Activity [24]: Not toxic
- Activity [25]: Not toxic
- Activity [26]: Not toxic
- Activity [27]: Not toxic
- Activity [28]: Not toxic
- Activity [29]: Not toxic
- Activity [30]: Not toxic
- Activity [31]: Not toxic
- Activity [32]: Not toxic
- Activity [33]: Not toxic
- Activity [34]: Not toxic
- Activity [35]: Not toxic
- Activity [36]: Not toxic
- Activity [37]: Not toxic
- Activity [38]: Non-Toxic

Structure (SMILES): C=C1CC[C@@]2(O)C[C@@H]1[C@]2(C)[C@@H](/C=C/C(C)(C)O)OC(C)=O
- MIC [1]: 0.5 µg/mL
- MIC [2]: 4 µg/mL
- MIC [3]: 0.5 µg/mL
- MIC [4]: 4 µg/mL
- MIC [5]: 8 µg/mL
- MIC [6]: 2 µg/mL
- MIC [7]: 4 µg/mL
- MIC [8]: 2 µg/mL
- MIC [9]: 0.5 µg/mL
- MIC [10]: 4 µg/mL
- MIC [11]: 8 µg/mL
- EC50 [39]: 1 µg/mL
- Activity ([39]; dose <= 100.0 µg/ml): Dose-Dependent Effect
- Activity [19]: Not toxic
- Activity [20]: Not toxic
- Activity [21]: Not toxic
- Activity [22]: Not toxic
- Activity [23]: Not toxic
- Activity [24]: Not toxic
- Activity [25]: Not toxic
- Activity [26]: Not toxic
- Activity [27]: Not toxic
- Activity [28]: Not toxic
- Activity [29]: Not toxic
- Activity [30]: Not toxic
- Activity [31]: Not toxic
- Activity [32]: Not toxic
- Activity [33]: Not toxic
- Activity [34]: Not toxic
- Activity [35]: Not toxic
- Activity [36]: Not toxic
- Activity [37]: Not toxic
- Activity [38]: Non-Toxic

— ChEMBL document CHEMBL5634182, “Antifungal Pseuboyenes A-J, Bergamotene-Derived Sesquiterpenoids from a Cold-Seep-Derived Pseudallescheria boydii” (J Nat Prod, 2024)
